Measurements: ChEMBL document CHEMBL1151877, “Examination of halogen substituent effects on HIV-1 integrase inhibitors derived from 2,3-dihydro-6,7-dihydroxy-1H-isoindol-1-ones and 4,5-dihydroxy-1H-isoindole-1,3(2H)-diones” (Bioorg Med Chem Lett, 2009)

Experiments:
[1] = target: T1, Human immunodeficiency virus type 1 integrase (Human immunodeficiency virus 1, UniProt Q7ZJM1); assay: Inhibition of HIV1 integrase strand transfer activity in presence of magnesium
[2] = system: Human immunodeficiency virus 1; assay: Antiviral activity against VSV-g-pseudotyped HIV1 assessed as inhibition of viral infection in human HOS cells pretreated for 3 hrs before viral infection by luciferase reporter gene assay; assay type: functional, organism-based; conditions: Human immunodeficiency virus 1, HOS
HOS = assay: Cytotoxicity against human HOS cells; assay type: cell-based
[3] = target: T1, Human immunodeficiency virus type 1 integrase; assay: Inhibition of HIV1 integrase 3'-processing activity in presence of magnesium
[4] = target: Human immunodeficiency virus type 1 integrase (Human immunodeficiency virus 1) (UniProt Q7ZJM1); assay: Selectivity ratio of IC50 for HIV1 integrase strand transfer activity to IC50 for HIV1 integrase 3'-processing activity
Sequence of Human immunodeficiency virus type 1 integrase (Human immunodeficiency virus 1) (Q7ZJM1 as listed by the source): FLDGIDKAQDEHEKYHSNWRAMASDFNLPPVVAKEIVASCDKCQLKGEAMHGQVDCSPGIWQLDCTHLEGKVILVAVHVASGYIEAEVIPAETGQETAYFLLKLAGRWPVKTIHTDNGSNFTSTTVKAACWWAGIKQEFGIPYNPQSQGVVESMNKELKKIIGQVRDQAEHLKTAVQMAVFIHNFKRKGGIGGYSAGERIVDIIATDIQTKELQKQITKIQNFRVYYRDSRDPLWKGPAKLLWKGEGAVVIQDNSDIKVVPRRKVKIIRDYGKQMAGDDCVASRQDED

T1 sequence (Q7ZJM1 whole entry): as the sequence (Q7ZJM1 as listed by the source) above

Compound	IC50 [1] [µM]	EC50 [2] [µM]	IC50 (HOS) [µM]	IC50 [3] [µM]	Ratio IC50 [4]
O=C1c2c(ccc(O)c2O)CN1Cc1cc(F)ccc1F	27	1.24	13.4	> 333	–
O=C1c2ccc(O)c(O)c2C(=O)N1Cc1ccc(Cl)c(F)c1	0.9	–	–	58	–
O=C1c2c(ccc(O)c2O)CN1Cc1ccc(F)c(F)c1F	2.7	–	–	153	–
O=C1c2c(ccc(O)c2O)CN1Cc1cc(F)c(F)c(F)c1	4	–	–	99	–
O=C1c2ccc(O)c(O)c2C(=O)N1Cc1cc(Cl)ccc1F	0.31	–	–	9	–
O=C1c2c(ccc(O)c2O)CN1Cc1ccc(F)c(F)c1	0.9	1.08	9.01	72	–
O=C1c2c(ccc(O)c2O)CN1Cc1c(F)cccc1Cl	18	–	–	> 333	–
O=C1c2c(ccc(O)c2O)CN1Cc1cc(Cl)c(F)cc1F	4.4	0.65	8.38	> 333	–
O=C1c2ccc(O)c(O)c2C(=O)N1Cc1cc(F)ccc1F	0.23	–	–	60	–
O=C1c2ccc(O)c(O)c2C(=O)N1Cc1cccc(Cl)c1	0.4	4.2	13.3	14	–
O=C1c2ccc(O)c(O)c2C(=O)N1Cc1ccccc1	0.4	11.2	–	72	–
O=C1c2ccc(O)c(O)c2C(=O)N1Cc1cc(Cl)c(F)cc1F	0.4	4.43	13.7	79	–
O=C1c2ccc(O)c(O)c2C(=O)N1Cc1ccc(F)cc1Cl	1.3	–	–	90	–
O=C1c2c(ccc(O)c2O)CN1Cc1cccc(F)c1	21	1.06	8.6	238	–
O=C1c2c(ccc(O)c2O)CN1Cc1cc(F)cc(F)c1	0.3	2.42	17.2	233	–
O=C1c2ccc(O)c(O)c2C(=O)N1Cc1c(F)cccc1F	2	–	–	103	–
O=C1c2c(ccc(O)c2O)CN1Cc1ccc(F)c(Cl)c1	–	0.48	6.87	–	–
Cc1cc(CN2C(=O)c3ccc(O)c(O)c3C2=O)ccc1F	0.8	–	–	11	–
O=C1c2ccc(O)c(O)c2C(=O)N1Cc1cc(F)c(F)c(F)c1	0.6	–	–	10	–
O=C1c2c(ccc(O)c2O)CN1Cc1ccc(F)cc1F	0.5	–	–	37	–
O=C1c2c(ccc(O)c2O)CN1Cc1ccc(Cl)c(Cl)c1	0.1	3.3	5.68	89	–
O=C1c2ccc(O)c(O)c2C(=O)N1Cc1ccc(F)c(F)c1	0.1	5.88	7.94	27	–
O=C1c2ccc(O)c(O)c2C(=O)N1Cc1ccc(F)cc1	5	0.86	–	8	–
O=C1c2c(ccc(O)c2O)CN1Cc1c(F)ccc(F)c1F	25	–	–	> 333	–
O=C1c2ccc(O)c(O)c2C(=O)N1Cc1cccc(I)c1	1	7.77	12	85	–
O=C1c2ccc(O)c(O)c2C(=O)N1Cc1cc(F)c(F)cc1F	0.5	–	–	54	–
O=C1c2ccc(O)c(O)c2C(=O)N1Cc1cccc(Br)c1	0.4	3.78	11.4	16	–
O=C1c2ccc(O)c(O)c2C(=O)N1Cc1ccccc1F	2	–	–	68	–

Compound	IC50 [1] [µM]	EC50 [2] [µM]	IC50 (HOS) [µM]	IC50 [3] [µM]	Ratio IC50 [4]
O=C1c2c(ccc(O)c2O)CN1Cc1cccc(Br)c1	3	0.59	7.24	264	–
O=C1c2c(ccc(O)c2O)CN1Cc1cccc(Cl)c1	4	0.54	9.02	72	–
O=C1c2ccc(O)c(O)c2C(=O)N1Cc1c(F)ccc(F)c1F	1.8	–	–	158	–
O=C1c2c(ccc(O)c2O)CN1Cc1cccc(Cl)c1F	2	0.62	9.43	36	–
O=C1c2ccc(O)c(O)c2C(=O)N1Cc1ccc(Cl)c(Cl)c1	0.12	2.33	4.43	18	–
O=C1c2c(ccc(O)c2O)CN1Cc1c(F)c(F)c(F)c(F)c1F	8	–	–	230	–
O=C1c2ccc(O)c(O)c2C(=O)N1Cc1c(F)ccc(F)c1Cl	4	–	–	34	–
O=C1c2ccc(O)c(O)c2C(=O)N1Cc1ccc(F)c(Br)c1	0.9	–	–	11	–
O=C1c2c(ccc(O)c2O)CN1Cc1cc(F)c(F)cc1F	3.7	–	–	> 333	–
O=C1c2c(ccc(O)c2O)CN1Cc1ccc(F)cc1Cl	2.5	–	–	> 333	700
O=C1c2ccc(O)c(O)c2C(=O)N1Cc1ccc(F)c(Cl)c1	0.17	2.83	9.54	14	–
O=C1c2ccc(O)c(O)c2C(=O)N1Cc1cccc(F)c1	0.3	–	–	11	–
O=C1c2ccc(O)c(O)c2C(=O)N1Cc1ccc(F)cc1F	0.3	–	–	16	–
O=C1c2ccc(O)c(O)c2C(=O)N1Cc1cc(F)cc(F)c1	0.4	–	–	48	–
O=C1c2c(ccc(O)c2O)CN1Cc1ccc(F)c(Br)c1	1	–	–	34	–
O=C1c2c(ccc(O)c2O)CN1Cc1cccc(I)c1	4	1.07	6.92	169	–
O=C1c2c(ccc(O)c2O)CN1Cc1c(F)cccc1F	20	–	–	71	–
O=C1c2ccc(O)c(O)c2C(=O)N1Cc1c(F)cccc1Cl	3.5	–	–	54	–
O=C1c2ccc(O)c(O)c2C(=O)N1Cc1ccc(F)c(F)c1F	0.8	–	–	18	–
O=C1c2c(ccc(O)c2O)CN1Cc1cc(Cl)ccc1F	1.2	–	–	18	–
O=C1c2c(ccc(O)c2O)CN1Cc1cccc(F)c1F	0.7	–	–	72	–
O=C1c2c(ccc(O)c2O)CN1Cc1c(F)ccc(F)c1Cl	8.9	–	–	> 333	–
O=C1c2c(ccc(O)c2O)CN1Cc1ccc(Cl)c(F)c1	6	–	–	97	–
O=C1c2ccc(O)c(O)c2C(=O)N1Cc1cccc(Cl)c1F	2	2.74	11.5	25	–
Cc1cc(CN2Cc3ccc(O)c(O)c3C2=O)ccc1F	0.9	–	–	17	–
O=C1c2c(ccc(O)c2O)CN1Cc1ccccc1F	25	–	–	> 333	–
O=C1c2ccc(O)c(O)c2C(=O)N1Cc1c(F)c(F)c(F)c(F)c1F	1.3	–	–	41	–
